From patent US20210052741A1, “GENE THERAPY METHODS AND COMPOSITIONS USING AUXOTROPHIC REGULATABLE CELLS” (AUXOLYTIC LTD, priority 2018, published 2021)
Several values for one entry are separate records, joined by “and”; a condition that tells them apart may be missing. Identical values can stand only once.

What was measured:
[1] = test system: GFP- UMPS^WT/WT hESCs; assay: 5-FOA resistance in hESC co-culture (FACS); type: cell-based, human; settings: for Viable cell counts, GFP−: co-culture
Description: (§1) To assess resistance to 5-FOA, the UMPS-KO hESCs were genetically engineered to express GFP from an expression cassette integrated into a safe-harbor locus for easier identification in co-culture with UMPS-WT cells.
(§2) These UMPS^KO/KO hESCs were mixed with UMPS^WT/WT cells that were not expressing GFP and followed up by fluorescence-activated cell sorting (FACS) analysis in the presence of different concentrations of 5-FOA. Table 16 provides counts of viable GFP+ and GFP− cells after culture with different 5-FOA concentrations.

[2] = test system: GFP+ UMPS^KO/KO hESCs; assay: 5-FOA resistance in hESC co-culture (FACS); type: cell-based, human; settings: for Viable cell counts, GFP+: co-culture
Description: as §1, §2

[3] = test system: UMPS^KO/KO/GFP^+ K562 cells mixed with UMPS^WT/WT K562 cells; assay: 5-FOA resistance in mixed K562 culture; type: cell-based, human; settings: for Percentages of GFP+ cells, Day 1 / Percentages of GFP+ cells, Day 2 / Percentages of GFP+ cells, Day 3 / Percentages of GFP+ cells, Day 4 / Percentages of GFP+ cells, Day 6 / Percentages of GFP+ cells, Day 8: with Uridine
Procedure: To determine the resistance of UMP S knockout cells to 5-FOA the purified uMPS^KO/KO/GFP^+ K562 cells were mixed at an equal ratio with UMPS^wT/WT/GFP-negative K562 cells. The cells were cultured in the presence of Uridine and different concentrations of 5-FOA (FIG. 6F).

[4] = test system: UMPS-WT Nalm6 cells; assay: Growth curves of Nalm6 cells with uridine; type: cell-based, human; settings: for Cell counts, Day 0 / Cell counts, Day 1 / Cell counts, Day 2 / Cell counts, Day 3 / Cell counts, Day 4 / Cell counts, Day 5 / Cell counts, Day 6 / Cell counts, Day 7: UMPS-WT
Procedure: The same experiment was performed with Nalm6 cells and a similar dependency on the uridine concentration in the culture was observed that was not visible for cells with intact UMPS. Table 25 provides data of growth curves of UMPS^KO/KO Nalm6 cells cultured with different uridine concentrations. No difference was observed between the groups receiving uridine supplement treatment and those not for wild-type cells.

[5] = test system: UMPS edited T cells; assay: TIDE analysis of UMPS InDels in mixed UMPS edited population; type: cell-based, human
Procedure: Sanger sequencing of the UMPS locus was performed using UMPS-O-1 and UMPS-O-2, with the region amplified using PHUSION™ Hot Start Flex 2x Master Mix (New England Biolabs, Inc.). Sanger sequencing traces were analyzed by TIDE analysis (see, Brinkman et al, 2014, Nucleic Acids Res. 42(22):e168), which is hereby incorporated by reference in its entirety) to identify insertions and deletions (InDels) after editing. InDel quantification was performed on the sequences using the TIDE online tool (www.deskgen.com/landing/tide.html) (See, M. Sadelain, N. Engl. J. Med. 365, 1735-7 (2011), which is hereby incorporated by reference in its entirety.
T Cells were electroporated and edited as in Example 2 and allowed to recover for a 4-day period in medium with serum, uridine, and UMP. On day 4, cells were shifted to UMP, uridine, or uracil source media. […]
To confirm the results on the genomic level, genomic DNA was harvested at the end of the experiment and InDels were quantified (FIG. 5D-FIG. 5E). FIG. 5D compares the frequency of InDels in different culture conditions for cells not exposed to 5-FOA.

[6] = oral; cited from earlier work
[7] = cells not exposed to 5-FOA, end of experiment, metabolite 250 μg/ml

O=C(O)c1[nH]c(=O)[nH]c(=O)c1F [5-FOA, 5-fluoroorotic acid]
sensitivity of UMPS-WT cells to 5-FOA ([1]; all tested concentrations (0.25-25 μg/ml)): sensitive to all tested 5-FOA concentrations
Viable cell counts, GFP− ([1]; 5-FOA 0.25 μg/ml): 5180
Viable cell counts, GFP− ([1]; 5-FOA 2.5 μg/ml): 687.5
Viable cell counts, GFP− ([1]; 5-FOA 25 μg/ml): 334.02
tolerance of UMPS-KO cells to 5-FOA ([2]; 0.25 μg/ml): tolerated the concentration of 0.25 μg/ml well
Viable cell counts, GFP+ ([2]; 5-FOA 0.25 μg/ml): 142820
Viable cell counts, GFP+ ([2]; 5-FOA 2.5 μg/ml): 11812.5
Viable cell counts, GFP+ ([2]; 5-FOA 25 μg/ml): 8455.98
proliferation of UMPS-KO cells in 5-FOA ([2]; concentrations above 0.25 μg/ml): impaired proliferation at higher concentrations
cells GFP+ ([2]; groups with 5-FOA (54.8% without 5-FOA)): 95.0%
Number of GFP + cells per μl, Day 1 ([3]; 10 ug/ml 5-FOA): 87013.04 cells per μl
Number of GFP + cells per μl, Day 2 ([3]; 10 ug/ml 5-FOA): 163245.74 cells per μl
Number of GFP + cells per μl, Day 4 ([3]; 10 ug/ml 5-FOA): 569281.05 cells per μl
Number of GFP + cells per μl, Day 6 ([3]; 10 ug/ml 5-FOA): 550780.31 cells per μl
Number of GFP + cells per μl, Day 8 ([3]; 10 ug/ml 5-FOA): 719624.13 cells per μl
Percentages of GFP+ cells, Day 1 ([3]; 10 ug/ml 5-FOA): 45.4% and 48.5%
Percentages of GFP+ cells, Day 2 ([3]; 10 ug/ml 5-FOA): 54.7% and 56.8%
Percentages of GFP+ cells, Day 3 ([3]; 10 ug/ml 5-FOA): 65.6% and 64.0%
Percentages of GFP+ cells, Day 4 ([3]; 10 ug/ml 5-FOA): 64.8% and 69.7%
Percentages of GFP+ cells, Day 6 ([3]; 10 ug/ml 5-FOA): 79.1% and 76.5%
Percentages of GFP+ cells, Day 8 ([3]; 10 ug/ml 5-FOA): 85.0% and 79.8%
Number of GFP + cells per μl, Day 1 ([3]; 100 ug/ml 5-FOA): 115272.35 cells per μl
Number of GFP + cells per μl, Day 2 ([3]; 100 ug/ml 5-FOA): 106377.73 cells per μl
Number of GFP + cells per μl, Day 4 ([3]; 100 ug/ml 5-FOA): 376993.53 cells per μl
Number of GFP + cells per μl, Day 6 ([3]; 100 ug/ml 5-FOA): 501940.62 cells per μl
Number of GFP + cells per μl, Day 8 ([3]; 100 ug/ml 5-FOA): 693093.53 cells per μl
Percentages of GFP+ cells, Day 1 ([3]; 100 ug/ml 5-FOA): 52.6% and 48.9%
Percentages of GFP+ cells, Day 2 ([3]; 100 ug/ml 5-FOA): 67.1% and 64.2%
Percentages of GFP+ cells, Day 3 ([3]; 100 ug/ml 5-FOA): 79.5% and 71.4%
Percentages of GFP+ cells, Day 4 ([3]; 100 ug/ml 5-FOA): 85.2% and 74.4%
Percentages of GFP+ cells, Day 6 ([3]; 100 ug/ml 5-FOA): 92.1% and 86.2%
Percentages of GFP+ cells, Day 8 ([3]; 100 ug/ml 5-FOA): 92.8% and 82.8%
Number of GFP + cells per μl, Day 1 ([3]; 1000 ug/ml 5-FOA): 75925.72 cells per μl
Number of GFP + cells per μl, Day 2 ([3]; 1000 ug/ml 5-FOA): 79080.77 cells per μl
Number of GFP + cells per μl, Day 4 ([3]; 1000 ug/ml 5-FOA): 151010.55 cells per μl
Number of GFP + cells per μl, Day 6 ([3]; 1000 ug/ml 5-FOA): 217794.10 cells per μl
Number of GFP + cells per μl, Day 8 ([3]; 1000 ug/ml 5-FOA): 339282.35 cells per μl
Percentages of GFP+ cells, Day 1 ([3]; 1000 ug/ml 5-FOA): 51.9% and 49.4%
Percentages of GFP+ cells, Day 2 ([3]; 1000 ug/ml 5-FOA): 65.0% and 58.9%
Percentages of GFP+ cells, Day 3 ([3]; 1000 ug/ml 5-FOA): 72.9% and 66.9%
Percentages of GFP+ cells, Day 4 ([3]; 1000 ug/ml 5-FOA): 82.0% and 77.7%
Percentages of GFP+ cells, Day 6 ([3]; 1000 ug/ml 5-FOA): 92.6% and 90.5%
Percentages of GFP+ cells, Day 8 ([3]; 1000 ug/ml 5-FOA): 90.1% and 75.7%
proliferation of UMPS knockout cells in 5-FOA ([3]; 10 and 100 μg/ml 5-FOA): proliferated well
fraction of UMPS^KO/KO cells ([3]; all 5-FOA concentrations used): increased over time
cell growth of UMPS knockout cells in 5-FOA ([3]; highest concentration (1000 ug/ml)): slowed their cell growth down

O=c1ccn([C@@H]2O[C@H](CO)[C@@H](O)[C@H]2O)c(=O)[nH]1 [Uridine]
Cell counts, Day 0 ([4]; 2.5 ug/ml uridine): 20052 and 19661 and 21142
Cell counts, Day 1 ([4]; 2.5 ug/ml uridine): 35088 and 34130 and 28986
Cell counts, Day 2 ([4]; 2.5 ug/ml uridine): 67340 and 38314 and 62598
Cell counts, Day 3 ([4]; 2.5 ug/ml uridine): 156019 and 153257 and 137812
Cell counts, Day 4 ([4]; 2.5 ug/ml uridine): 244368 and 225750 and 338624
Cell counts, Day 5 ([4]; 2.5 ug/ml uridine): 923391 and 1119256 and 1148582
Cell counts, Day 6 ([4]; 2.5 ug/ml uridine): 2017336 and 3269476
Cell counts, Day 7 ([4]; 2.5 ug/ml uridine): 3869992 and 6117085 and 6538953
Cell counts, Day 0 ([4]; 25 μg/ml uridine): 27548 and 19505 and 36496
Cell counts, Day 1 ([4]; 25 μg/ml uridine): 31847 and 39683 and 40000
Cell counts, Day 2 ([4]; 25 μg/ml uridine): 70922 and 70175 and 68027
Cell counts, Day 3 ([4]; 25 μg/ml uridine): 214190 and 194185 and 174292
Cell counts, Day 4 ([4]; 25 μg/ml uridine): 447240 and 311891 and 376249
Cell counts, Day 5 ([4]; 25 μg/ml uridine): 1413856 and 1173622 and 1216000
Cell counts, Day 6 ([4]; 25 μg/ml uridine): 3792593 and 2708995
Cell counts, Day 7 ([4]; 25 μg/ml uridine): 6320988 and 5746352 and 7585185
Cell counts, Day 0 ([4]; 250 μg/ml uridine): 17980 and 24390
Cell counts, Day 1 ([4]; 250 μg/ml uridine): 33784 and 40000
Cell counts, Day 2 ([4]; 250 μg/ml uridine): 59524 and 58737
Cell counts, Day 3 ([4]; 250 μg/ml uridine): 167715 and 160160
Cell counts, Day 4 ([4]; 250 μg/ml uridine): 303894 and 213547
Cell counts, Day 5 ([4]; 250 μg/ml uridine): 1163678 and 1115507
Cell counts, Day 6 ([4]; 250 μg/ml uridine): 3511660 and 3058542
Cell counts, Day 7 ([4]; 250 μg/ml uridine): 7293447
growth with vs without uridine supplement ([4]; wild-type cells): No difference
Alleles with frameshift InDels, Percent of alleles (without 5-FOA) ([5]; TIDE, day 8, metabolite 250 μg/ml): 52.5%
Alleles with InDels, Percent of alleles (without 5-FOA) ([5]; TIDE, metabolite 250 μg/ml): 77.0%
frameshift InDel frequency, Percent [5, 7]: 52.5%
overall InDel frequency, Percent (%) [5, 7]: 77.0%
Predicted viable cell counts, Cells with In-frame InDel ([5]; day 8, metabolite 250 μg/ml): 777000
Predicted viable cell counts, Cells with frameshift InDel ([5]; day 8, metabolite 250 μg/ml): 1660000
Predicted viable cell counts, Cells without InDel ([5]; day 8, metabolite 250 μg/ml): 729100
absorption and breakdown [6]: poorly absorbed in the gastrointestinal tract and broken down in the liver
